From patent US20260242418A1, “CYCLIC PEPTIDES WITH ANTIBACTERIAL ACTIVITY AGAINST MULTIDRUG RESISTANT (MDR) PATHOGENS” (priority 2022, published 2026)
Values after ≈ are worked out from the molar mass of the structure shown. Where two headings read alike, the source gives them in different places.

Experiments:
A. baumannii = format: cell-based; details: for Folds: with vs w/o albumin
Description: (§1) To assess antimicrobial activity of PLP3 in a physiological relevant environment, MICs were performed at physiological human albumin concentrations. To this end, Mueller-Hinton broth (MHB) was supplemented with 40 mg/mL human albumin (A1653-5G, Merck) and broth microdilution protocol was used. SEQ ID NO: 4 (PLP-3) and colistin stocks were prepared both in MHB and albumin supplemented MHB. These were used for comparison of MICs in the presence or absence of albumin, and as a control.

P. aeruginosa = format: cell-based; details: for Folds: with vs w/o albumin
Description: as §1

Staphylococcus aureus = format: cell-based; details: 19 strains (10/19 MRSA)
Source text: (§2) The Minimum Inhibitory Concentration (MIC) of PLP-3 peptide (SEQ D NO: 4) against a collection of clinically relevant Gram-positive bacterial strains was obtained via broth microdilution. The tested species Staphylococcus aureus, Enterococcus faecium and Enterococcus faecalis. The followed protocol was based on the Clinical & Laboratory Standards Institute (CLSI) and EUCAST Guidelines.
(§3) In these tests, MIC is the value defined as the lowest concentration of an antimicrobial which inhibits the macroscopic growth of a bacterial strain after 16-20 hours of incubation at 37° C. The results of this assay were obtained by visual identification of bacterial growth at the bottom of each well plate. Since the wells contained decreasing concentrations of the peptide, the final result was indicated as a concentration, MIC, expressed in μg/mL of the PLP-3.
(§4) Bacterial strains were streaked in Columbia Agar plates (Columbia Agar with 5% Sheep Blood 90 mm Stacker plates, Becton Dickinson) and incubated overnight at 37° C. Polypropylene round bottomed 96-well plates were filled with 50 μL/well of Cation Adjusted Mueller-Hinton Broth (CAMHB, 90922, 500 g, Sigma-Aldrich) and 50 μL of PLP-3 (at 4 times higher the chosen initial concentration of the test) were added to the first well of each row of the plate followed by 1:2 serial dilutions up until the 10th column of the plate. The 11th and 12th columns were used for positive and negative growth controls.
(§5) Stain inoculums were standardized by preparing a 1:100 dilution of 0.5 McFarland solutions in CAMHB. Plates were inoculated with 50 μL of the diluted inoculums and covered with an adhesive film before 16-20 hours of incubation at 37° C.
(§6) Two biological and two technical replicates were performed per strain.
(§7) Broth microdilution testing from a panel of clinical strains of each specie provided MIC50 and […] values (Table 7). Strains were either from clinical origin, relevant to current clinical situation, or commercially available strains belonging to the American Type Culture Collection (ATCC), S. aureus 29213. Regarding clinical strains collection, 10 out of the 19 S. aureus strains were resistant to methicillin (MRSA), and 11 out of the 22 E. faecium strains were resistant to Vancomycin (VRE).
(§8) MIC50 value represents the antimicrobial concentration value that inhibits the growth of 50% of the bacterial strain panel. […] value represents the antimicrobial concentration value that inhibits the growth of 90% the bacterial strain collection.

Enterococcus faecium = format: cell-based; details: 22 strains (11/22 VRE)
Source text: as §2, §3, §4, §5, §6, §7, §8

Enterococcus faecalis = format: cell-based; details: 15 strains
Source text: as §2, §3, §4, §5, §6, §7, §8

A. baumannii ATCC 19606 = assay: Time-kill curves; format: cell-based, Acinetobacter baumannii
Description: Time-kill curves (TKC) determine the in vitro antimicrobial activity of a compound, monitoring the bacterial growth over a certain period of time.
This assay was performed for two Acinetobacter baumannii strains (a clinical strain and ATCC 19606 strain) and one Pseudomonas aeruginosa ATCC 27853 strain, monitoring its growth during 24 hours at different PLP-3 (SEQ ID NO: 4) concentrations: MIC, 2×MIC, 4×MIC, 8×MIC. Moreover, in each TKC assay a negative and a positive growth control was stablished.
In different 13MI tubes, a certain concentration of PLP-3 peptide, Mueller-Hinton Broth (MHB, 1214, Condalab) and a fixed inoculum concentration were added. The final inoculum concentration in each tube was […]. Tubes were incubated at 37° C. at 180 rpm during 24 hours. Aliquots of the liquid culture were taken at different times: 0 h, 10 minutes, 30 minutes, 1 h, 2 h, 4 h, 8 h and 24 h. For each taken aliquot, serial dilutions with Phosphate Saline Buffer 1× (PBS 1×) were made and streaked in Luria-Bertani Agar (LB, 1083, Condalab). LB Agar plates were incubated at 37° C. during 18-22 hours. Grown colonies in LB Agar were counted in order to quantify the inoculum in each time period.
Three biological replicates were performed for each strain, and the mean and standard deviation was determined each time.

CC(C)C[C@@H]1NC(=O)[C@H](CCCNC(=N)N)NC(=O)[C@H](CCCNC(=N)N)NC(=O)[C@H](CCCNC(=N)N)NC(=O)[C@H]2CCCN2C(=O)[C@H](CCCNC(=N)N)NC(=O)[C@H](CCCNC(=N)N)NC(=O)[C@H](C(C)C)NC(=O)[C@@H]2CSSC[C@H](NC1=O)C(=O)N[C@@H](Cc1ccccc1)C(=O)N[C@@H](C(C)C)C(=O)N[C@@H](CCCNC(=N)N)C(=O)N1CCC[C@@H]1C(=O)N[C@@H](CCCCN)C(=O)N[C@@H](Cc1ccccc1)C(=O)N[C@@H](C(C)C)C(=O)N[C@@H](C(C)C)C(=O)N2 [PLP-3, cyclo[RRRLCFVRPKFVVCVRRP]]
MIC With Albumin 40 mg/mL (A. baumannii; strain ATCC 17978): 4 µg/mL | MIC w/o Albumin (A. baumannii; strain ATCC 17978): 1 µg/mL (≈ 0.441 µM) | Folds (A. baumannii; strain ATCC 17978): 2 | MIC With Albumin 40 mg/mL (A. baumannii; strain CR17): 2 µg/mL | MIC w/o Albumin (A. baumannii; strain CR17): 1 µg/mL (≈ 0.441 µM) | Folds (A. baumannii; strain CR17): 1 | MIC With Albumin 40 mg/mL (P. aeruginosa; strain ATCC 27853): 8 µg/mL | MIC w/o Albumin (P. aeruginosa; strain ATCC 27853): 2 µg/mL (≈ 0.882 µM) | Folds (P. aeruginosa; strain ATCC 27853): 2 | MIC With Albumin 40 mg/mL (P. aeruginosa; strain R2): 32 µg/mL | MIC w/o Albumin (P. aeruginosa; strain R2): 4 µg/mL (≈ 1.76 µM) | Folds (P. aeruginosa; strain R2): 3 | MIC50 (Staphylococcus aureus): 4 µg/mL (≈ 1.76 µM) | MIC90 (Staphylococcus aureus): 8 µg/mL (≈ 3.53 µM) | MIC50 (Enterococcus faecium): 2 µg/mL (≈ 0.882 µM) | MIC90 (Enterococcus faecium): 2 µg/mL (≈ 0.882 µM) | MIC50 (Enterococcus faecalis): 4 µg/mL (≈ 1.76 µM) | MIC90 (Enterococcus faecalis): 4 µg/mL (≈ 1.76 µM) | log(CFU/mL) Mean (A. baumannii ATCC 19606; 2xMIC (4 μg/mL), 0.00 h): 5.87 log(CFU/mL) | log(CFU/mL) Mean (A. baumannii ATCC 19606; 2xMIC (4 μg/mL), 0.17 h): 5.54 log(CFU/mL) | log(CFU/mL) Mean (A. baumannii ATCC 19606; 2xMIC (4 μg/mL), 0.50 h): 4.91 log(CFU/mL) | log(CFU/mL) Mean (A. baumannii ATCC 19606; 2xMIC (4 μg/mL), 1.00 h): 3.14 log(CFU/mL) | log(CFU/mL) Mean (A. baumannii ATCC 19606; 2xMIC (4 μg/mL), 2.00 h): 2.18 log(CFU/mL) | log(CFU/mL) Mean (A. baumannii ATCC 19606; 2xMIC (4 μg/mL), 4.00 h): 2.58 log(CFU/mL) | log(CFU/mL) Mean (A. baumannii ATCC 19606; 2xMIC (4 μg/mL), 8.00 h): 2.56 log(CFU/mL) | log(CFU/mL) Mean (A. baumannii ATCC 19606; 2xMIC (4 μg/mL), 24.00 h): 3.30 log(CFU/mL) | log(CFU/mL) Mean (A. baumannii ATCC 19606; 4xMIC (8 μg/mL), 0.00 h): 5.87 log(CFU/mL) | log(CFU/mL) Mean (A. baumannii ATCC 19606; 4xMIC (8 μg/mL), 0.17 h): 5.12 log(CFU/mL) | log(CFU/mL) Mean (A. baumannii ATCC 19606; 4xMIC (8 μg/mL), 0.50 h): 3.79 log(CFU/mL) | log(CFU/mL) Mean (A. baumannii ATCC 19606; 4xMIC (8 μg/mL), 1.00 h): 0.94 log(CFU/mL) | log(CFU/mL) Mean (A. baumannii ATCC 19606; 4xMIC (8 μg/mL), 2.00 h): 0.00 log(CFU/mL) | log(CFU/mL) Mean (A. baumannii ATCC 19606; 4xMIC (8 μg/mL), 4.00 h): 0.00 log(CFU/mL) | log(CFU/mL) Mean (A. baumannii ATCC 19606; 4xMIC (8 μg/mL), 8.00 h): 0.00 log(CFU/mL) | log(CFU/mL) Mean (A. baumannii ATCC 19606; 4xMIC (8 μg/mL), 24.00 h): 0.00 log(CFU/mL) | log(CFU/mL) Mean (A. baumannii ATCC 19606; 8xMIC (16 μg/mL), 0.00 h): 5.87 log(CFU/mL) | log(CFU/mL) Mean (A. baumannii ATCC 19606; 8xMIC (16 μg/mL), 0.17 h): 3.41 log(CFU/mL) | log(CFU/mL) Mean (A. baumannii ATCC 19606; 8xMIC (16 μg/mL), 0.50 h): 0.87 log(CFU/mL) | log(CFU/mL) Mean (A. baumannii ATCC 19606; 8xMIC (16 μg/mL), 1.00 h): 0.00 log(CFU/mL) | log(CFU/mL) Mean (A. baumannii ATCC 19606; 8xMIC (16 μg/mL), 2.00 h): 0.00 log(CFU/mL) | log(CFU/mL) Mean (A. baumannii ATCC 19606; 8xMIC (16 μg/mL), 4.00 h): 0.00 log(CFU/mL) | log(CFU/mL) Mean (A. baumannii ATCC 19606; 8xMIC (16 μg/mL), 8.00 h): 0.00 log(CFU/mL) | log(CFU/mL) Mean (A. baumannii ATCC 19606; 8xMIC (16 μg/mL), 24.00 h): 0.00 log(CFU/mL) | log(CFU/mL) Mean (A. baumannii ATCC 19606; MIC (2 μg/mL), 0.00 h): 5.87 log(CFU/mL) | log(CFU/mL) Mean (A. baumannii ATCC 19606; MIC (2 μg/mL), 0.17 h): 5.85 log(CFU/mL) | log(CFU/mL) Mean (A. baumannii ATCC 19606; MIC (2 μg/mL), 0.50 h): 5.43 log(CFU/mL) | log(CFU/mL) Mean (A. baumannii ATCC 19606; MIC (2 μg/mL), 1.00 h): 4.01 log(CFU/mL) | log(CFU/mL) Mean (A. baumannii ATCC 19606; MIC (2 μg/mL), 2.00 h): 2.39 log(CFU/mL) | log(CFU/mL) Mean (A. baumannii ATCC 19606; MIC (2 μg/mL), 4.00 h): 3.05 log(CFU/mL) | log(CFU/mL) Mean (A. baumannii ATCC 19606; MIC (2 μg/mL), 8.00 h): 3.85 log(CFU/mL) | log(CFU/mL) Mean (A. baumannii ATCC 19606; MIC (2 μg/mL), 24.00 h): 5.17 log(CFU/mL) | bactericidal or bacteriostatic activity (A. baumannii ATCC 19606; time-kill curves over 24 hours, MIC to 8xMIC): bactericidal effect
